From article PMC7822874, “Chemoprotective antimalarials identified through quantitative high-throughput screening of Plasmodium blood and liver stage parasites” (Scientific Reports, 2021)

System: Plasmodium falciparum Dd2 asexual blood stage parasites
Experiment: microbe, parasite or virus in culture
Set-up: species or system Plasmodium falciparum Dd2 in human erythrocytes; single determination (one 11-point concentration-response curve)
Settings: Plasmodium falciparum, DD2, Erythrocyte, 72 h

| Compound | AC50 [µM] |
| --- | --- |
| Cc1cccc(OC(C)C(=O)NCC2(N(C)C)CCCCC2)c1C (stereo not drawn) [NCGC00118727-01] | 8.41 |

Same assay, conditions: Plasmodium falciparum, DD2, Erythrocyte, 72 h; read-out: AC50

| Compound | AC50 [µM] |
| --- | --- |
| COc1cc2c(cc1Oc1ccccc1)NC(=O)C21CCN(c2cnccn2)CC1 [NCGC00416813-01] | 2.17 |
| Cc1ccc(OCCSc2nc3ccc(NC(=O)c4cccs4)cc3s2)cc1 [NCGC00118830-01] | 2.99 |
| COc1cc(C(=O)OCC(=O)N2CCCCC2C)cc(NC(=O)c2cccs2)c1OC (stereo not drawn) [MLS001003405-01] | 0.473 |
| CC(C)(C)c1ccc(C(=O)N2CCCC(c3nc(O)c4nnn(Cc5cccc(F)c5)c4n3)C2)cc1 (stereo not drawn) [NCGC00116087-01] | 16.8 |
| C/C=C/c1cc(CN2CCN(c3ccccc3)CC2)c(O)c(OC)c1 [MLS001002110-01] | 5.96 |
| O=C1Nc2ccccc2CC12CCN2Cc1ccccn1 (stereo not drawn) [NCGC00477299-01] | 4.33 |
| CCOC(=O)C(C)/C(C)=N/N=C(\N)S (stereo not drawn) [MLS000701955-01] | 2.66 |
| CCCCC(O)(c1ccc(F)cc1)C(CN1CCOCC1)c1ccc(Cl)cc1 (stereo not drawn) [MLS001200342-01] | 5.96 |
| Cc1cccc(CN2CCN(C(=O)CCl)CC2)c1 [MLS000336096-01] | 13.3 |
| CC(C)c1ccccc1OCC(O)CN(CC(O)COc1cccc2ccccc12)C(C)C (stereo not drawn) [MLS001179995-01] | 2.37 |
| COC(=O)[C@H](Cc1ccc(OC)cc1)NC(=O)[C@H]1CN(C(=O)c2ccc(N(C)C)cc2)CCN1C(=O)c1cccs1 [NCGC00398661-01] | 0.188 |
| Cc1ccc(-c2cc(C(F)F)n3ncc(C(=O)N4CCCCC4c4cccnc4)c3n2)cc1 (stereo not drawn) [MLS000665275-01] | 2.37 |
| CCOc1ccccc1C(=O)N1CCN(C(=O)c2nnn3c2COC(c2ccccc2)C3)CC1 (stereo not drawn) [NCGC00449179-01] | 16.8 |
| O=C(C[C@@H]1NCCC[C@H]1O)Cn1cnc2cc(Br)c(Cl)cc2c1=O [NCGC00181132-01] | 2.37 |
| Cc1cc(NCc2ccco2)nc2cc(O)ccc12 [MLS000118315-01] | 6.68 |
| Cc1onc(-c2ccc(Cl)cc2)c1-c1ccnn1S(=O)(=O)c1cccc(C(F)(F)F)c1 [MLS001111123-01] | 4.73 |
| Cc1nc2sc(C(c3ccco3)N3CCN(C(c4ccccc4)c4ccccc4)CC3)c(O)n2n1 (stereo not drawn) [MLS000101802-01] | 5.96 |
| Cc1c(CN2CC(Oc3ccccc3C(=O)NCc3ccccc3)C2)cnn1C [NCGC00458092-01] | 4.22 |
| CC(C)(C)Nc1nc(NC(C)(C)C)nc(-n2ccnc2)n1 [MLS000044025-01] | 4.73 |
| CCOc1cc(C(=O)N2CCc3c([nH]c4ccccc34)C2c2ccccc2)cc(OCC)c1OCC (stereo not drawn) [NCGC00134525-01] | 7.5 |
| CC(C)c1cc(C(=O)Nc2cc(Cl)ccc2O)no1 [MLS000087324-01] | 6.68 |
| COc1cccc(/C=C/C(=O)Nc2ccc3nc(N4CCN(C)CC4)cc(C)c3c2)c1OC [NCGC00104449-01] | 5.96 |
| O=C(NC1CCCCC1)C(c1cccs1)N(CCCN1CCOCC1)C(=O)c1ccc(-c2ccccc2)[nH]1 (stereo not drawn) [MLS000711767-01] | 4.73 |
| CC(C)N1CCN(Cc2ccc(-c3ccccc3)cc2)CC1CCO (stereo not drawn) [MLS001000401-01] | 6.68 |
| CCC(=O)C1=C(c2ccccc2)N(C(=O)CC)n2c(nnc2-c2ccccc2)S1 [NCGC00137198-01] | 5.96 |
| Cc1ccc2c(n1)N(C)[C@H](CO)CCN(Cc1ccc(C(F)(F)F)cc1)C2 [NCGC00395284-01] | 15.3 |
| Cc1nc(-c2ccccc2)n(CC(=O)Nc2ccc(Cl)cc2)c(=O)c1CCO [NCGC00470932-01] | 16.8 |

| Compound | AC50 [µM] |
| --- | --- |
| O=C(c1nnc(CNc2ccncc2)n1-c1ccccc1)N1CCC[C@@H]1C(c1ccccc1)c1ccccc1 [NCGC00415781-01] | 10.6 |
| O=c1oc2ccccc2c(N2CCCCC2)c1CN1CCCC1 [MLS000525481-01] | 9.44 |
| Cc1cc([N+](=O)[O-])ccc1NC(=O)COc1nsnc1N1CCOCC1 [MLS000950344-01] | 6.68 |
| COc1ccc(OC)c(NC(=O)c2cc(-c3cc(Cl)ccc3O)n[nH]2)c1 [MLS000083936-01] | 4.73 |
| Cn1c2ccc(F)cc2c2nnc(SCCN3CCCCC3)nc21 [NCGC00102309-01] | 15 |
| CCc1cc(=O)oc2cc(C)cc(OCC(=O)NCC(O)c3ccccc3)c12 (stereo not drawn) [MLS001158251-01] | 6.68 |
| O[C@H]1CC[C@@H](Cc2cc(COc3ccccc3)on2)O[C@@H]1CNCc1cccc(Cl)c1 [NCGC00393311-01] | 2.11 |
| COc1ccc2cc1Nc1ccc(cc1)C[C@H](NC(=O)c1ccc(Oc3ccccc3)cc1)C(=O)N(C)[C@@H](C(=O)Nc1ccccc1)C2 [NCGC00410310-01] | 2.11 |
| CCOC(=O)c1c(N)sc2c1CCN(Cc1ccccc1)C2 [NCGC00159451-02] | 5.31 |
| COc1ccc(-c2ccc3ncc(Nc4ccnc(N5CCOCC5)c4)n3n2)cn1 [NCGC00412623-01] | 4.85 |
| Cc1ccc(CSC2=Nc3ccccc3C3=NC(CC(=O)NCc4ccco4)C(=O)N23)cc1 (stereo not drawn) [MLS000094891-01] | 6.68 |
| CN1CCN(C(=O)C2(N(C)CCc3ccccc3)Cc3ccccc3C2)CC1 [NCGC00438807-01] | 2.66 |
| COc1cccc(NC(=O)N[C@H]2C[C@@H](c3nc(C)no3)N(C)C2)c1 [NCGC00395440-01] | 17.2 |
| CC(C)CNc1nnnc2c1sc1nc(N3CCOCC3)c3c(c12)CCCC3 [MLS000779378-01] | 15 |
| COc1cc2c(cc1OCc1cccnc1)N(C(=O)c1ccc(Oc3ccccc3)cc1)CC21CCN(CC(=O)O)CC1 [NCGC00419910-01] | 5.96 |
| Cc1nc(CN2C(=O)OC3(CCN(C(=O)Cc4ccc5c(c4)OCO5)CC3)C2(C)c2ccccc2)cs1 (stereo not drawn) [NCGC00415487-01] | 2.11 |
| Cc1ccc(CN2CCc3oc(C)c(C(=O)NCCN4CCCCC4)c3C2)cc1 [NCGC00471970-01] | 10.6 |
| COc1cc2nc(NCc3ccc(C)cc3)n3nc(-c4ccccc4)nc3c2cc1OC [NCGC00112855-01] | 0.266 |
| COc1cc2c(cc1OC1CCCC1)NC(=O)C21CCN(Cc2nccs2)CC1 [NCGC00416850-01] | 19.3 |
| O=C(NC[C@H]1C[C@@H]2CC[N@]1C[C@@H]2CN1CCC(Cc2ccccc2)CC1)c1ccccc1 [NCGC00421103-01] | 7.69 |
| CC1=C[C@@H](CNC(=O)COc2ccccc2)[C@H](C(C)C)C[C@H]1Cc1nnc(-c2cncn2C)o1 [NCGC00394594-01] | 13.3 |
| O=C(c1ccc(OC2CCN(Cc3c[nH]c4ccccc34)CC2)cc1)N1CCCCC1 [NCGC00429064-01] | 15 |
| CCOC(=O)c1nnn(-c2nonc2N)c1-c1ccc(Cl)cc1 [MLS000727794-01] | 5.31 |
| O[C@@H]1C[C@@](CNCc2cccc(Cl)c2)(COc2ccccc2)C[C@@H]1O [NCGC00392187-01] | 3.85 |
| Oc1cc(NCc2ccc(F)cc2)cc2cccnc12 [NCGC00183798-01] | 4.73 |
| CCn1cc(CN2CCC(N3CC(OCC4CC4)C34CCCCC4)CC2)cn1 (stereo not drawn) [NCGC00463414-01] | 8.41 |
| O[C@H]1[C@H](NCC2CCCC2)[C@@H](c2ccccc2)C[C@H]1O [NCGC00395463-01] | 6.11 |

| Compound | AC50 [µM] |
| --- | --- |
| Cc1noc2c(NC3CCN(C)CC3)cc(-c3cccc(C(F)(F)F)c3)nc12 [NCGC00411487-01] | 13.7 |
| O=C(c1cccs1)N1CCCCCC1CN1CCCC1 (stereo not drawn) [NCGC00456696-01] | 10.6 |
| CCOc1c(Cl)cc(CNC(C)C(O)c2ccccc2)cc1OC (stereo not drawn) [MLS000679789-01] | 6.68 |
| O=C(NCc1cccs1)c1nc(-c2cccc(C(F)(F)F)c2)c2cnccn12 [NCGC00476439-01] | 9.44 |
| O=c1cc(-c2ccccc2)c2ccc3c(c2o1)CN(Cc1cccc(Cl)c1)CO3 [NCGC00116370-01] | 0.841 |
| COc1ccc(C(=O)N2CCC3(CC2)COc2ccccc2CN3)cc1 [NCGC00477552-01] | 10.6 |
| N#CC1CCN(C(=O)c2nc(-c3cccc(C(F)(F)F)c3)c3cnccn23)CC1 [NCGC00476479-01] | 16.8 |
| Cc1ccc(CN2CCC(CNC(=O)c3cnn(-c4ccc(C)cc4)c3C3CCN(C(=O)OC(C)(C)C)CC3)CC2)cc1 [NCGC00126945-01] | 8.41 |
| COC(=O)C1=C(C)N(c2ccc(OC)cc2)C(C)=C(C(=O)OC)C1c1ccccc1 [MLS000780021-01] | 9.44 |
| COc1ccccc1N1CCN(Cc2cc(C)c(C)cc2O)CC1 [MLS000571139-01] | 0.376 |
| O=c1oc2c(CN3CCOCC3)c(O)ccc2cc1-c1ccccc1 [NCGC00135757-01] | 9.44 |
| COc1ccc(S(=O)(=O)N2CCN(/C(S)=N/CC3CCCO3)CC2)cc1OC (stereo not drawn) [MLS001035648-01] | 6.68 |
| COc1ccc2cc1Nc1ccc(cc1)C[C@H](NC(=O)c1cc3ccccc3n1C)C(=O)N(C)[C@H](C(=O)NCCC(C)C)C2 [NCGC00410275-01] | 10.6 |
| COCC1CN(Cc2cccc(C(F)(F)F)c2)CC12CCNCC2 (stereo not drawn) [NCGC00461834-01] | 7.5 |
| Cc1cccc(Nc2cc(C)c3c(O)cccc3n2)c1C [MLS000586980-01] | 4.73 |
| CC1CCN(Cc2c(O)ccc3c(=O)c(Oc4ccccc4Cl)c(C(F)(F)F)oc23)CC1 [NCGC00101482-01] | 1.33 |
| Cc1ccc(CN2CCOC[C@H]2c2nc(C(C)(C)C)c[nH]2)cc1 [NCGC00393602-01] | 13.7 |
| CC(C)(C)n1[nH]c2c3c(ccc2c1=O)C(=O)c1ccccc1C3=O [MLS000530323-01] | 4.73 |
| O=S(=O)(c1ccc(F)cc1)N1CCN(/C(S)=N/CCc2ccccc2)CC1 [MLS001035761-01] | 5.96 |
| CC(C)C(=O)N1Cc2ccccc2OC2(CCN(C(C)C)CC2)C1 [NCGC00456474-01] | 10.6 |
| Cc1cc(Nc2ccc(C)c(C)c2)n2nc(C)nc2n1 [MLS000116616-01] | 4.73 |
| O=C(NCc1ccc(N2CCCC2)cc1)C1CCCN(c2cnn(Cc3ccccc3)c(=O)c2)C1 (stereo not drawn) [NCGC00470327-01] | 10.6 |
| NC1=NC(c2ccccc2C(F)(F)F)N(c2ccc(F)c(Cl)c2)C(N)=N1 (stereo not drawn) [MLS001199775-01] | 11.9 |
| CC(NC(=O)Cn1c(-c2cccs2)cc2cc(F)ccc21)c1ccccc1 (stereo not drawn) [NCGC00123911-01] | 2.66 |
| CC(C)CCNC(=O)c1cc(C(=O)c2cc(F)ccc2O)cn(CCC(C)C)c1=O [MLS000761418-01] | 2.11 |
| COC(=O)C1=C(c2ccc(OC)c(OC)c2)C[C@@H]2CC[C@H]1N2C(=O)NCc1cccc2ccccc12 [MLS002302726-01] | 3.35 |
